Common to all, as to experiment: growth of human tumour cells (NCI), 48 h
Experiment [1] has as its system HS 578T breast.
Experiment [2] relates to SW-620 colon.
Experiment [3] has as its system RPMI-8226 leukemia.
In experiment [4] the test system is SF-268 CNS.
Experiment [5] has as its system SF-295 CNS.
For experiment [6], the system named is TK-10 renal.
The subject of experiment [7] is MDA-MB-435.
Experiment [8] has as its system SN12C renal.
Experiment [9] has as its system HCC-2998 colon.
Experiment [10] has as its system A549 NSCLC.

SMILES strings stand for the structures.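 Tested at 5 concentrations; 48 h exposure; 96-well plates; endpoints linearly interpolated, else capped at highest concentration. TGI marks complete inhibition of growth.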

This note sets out measurements from PubChem BioAssay (NCI).

Regarding `Cc1ccc(-c2c(-c3ccccc3)[nH]c(C)c2C(=O)ONC(=O)c2ccccc2)cc1`, the TGI in experiment [1] came out at 5.39 µM; in experiment [2], 41.8 µM; in [3] it was 29.5 µM; in experiment [4], 7.31 µM; in experiment [5], 4.17 µM; in [6], 18.2 µM. Besides, the TGI was determined as 5.49 µM in [7], 8.36 µM in experiment [8], 28.9 µM in [9] and 7.65 µM in [10].

As for `Cc1cccc2oc3c(c(=O)c12)CC(O)C(C)(C)O3` (stereo not given), the TGI in [1], in experiment [2], in experiment [3], in experiment [4], in experiment [5] and in experiment [6] was greater than 100 µM throughout. Moreover, the TGI in [7], in experiment [8], in experiment [9] and in experiment [10] was greater than 100 µM in each case.

Consider `CN=C(Nc1ccc(OC)c2ccccc12)SC`, for which the TGI in experiment [1], in experiment [2], in experiment [3], in experiment [4], in [5] and in [6] was greater than 10 µM in each case. Moreover, the TGI in [7], in experiment [8], in experiment [9] and in experiment [10] was greater than 10 µM each time.

Consider `COc1cc(C(=O)Oc2c(C(C)=O)sc3c2c(=O)n(-c2ccccc2)c(=S)n3-c2ccccc2)cc(OC)c1OC`, for which the TGI in [1] is 74.4 µM; in experiment [2] it was 68.4 µM; in experiment [3], 59.9 µM; in experiment [4] it was 77.4 µM; in experiment [5] it was 40.6 µM; in experiment [6] it was greater than 100 µM. The TGI stood at 54.8 µM in experiment [7], 27.4 µM in experiment [8], 55.6 µM in experiment [9] and 78.3 µM in experiment [10].

`O=C(c1ccccc1)N1C(=O)N(c2ccccc2)C(=Nc2ccccc2)C1=Nc1ccccc1`: the TGI in experiment [1], in experiment [2], in experiment [3], in experiment [4], in experiment [5] and in experiment [6] was greater than 100 µM throughout. Moreover, the TGI in experiment [7], in experiment [8], in [9] and in experiment [10] was greater than 100 µM throughout.

With `O=c1[nH]nc(-c2ccccc2)n1/N=C/c1ccccc1O`, the TGI in experiment [1] is 96.2 µM; in [2] it was greater than 100 µM; in experiment [3], greater than 100 µM; in experiment [4], greater than 100 µM; in experiment [5], greater than 100 µM; in experiment [6], greater than 100 µM. The TGI in experiment [7], in [8], in experiment [9] and in [10] was greater than 100 µM throughout.

For the molecule `Cc1ccc(S(=O)(=O)CNC(=O)C(O)(O)C(F)(F)F)cc1`, the TGI in experiment [1], in [2], in experiment [3], in experiment [4], in experiment [5] and in experiment [6] was greater than 100 µM throughout. The TGI in [7], in [8], in [9] and in [10] was greater than 100 µM each time.

As to `CC(=O)C(C(=O)c1ccc(C)cc1)[C@H]1OC(C)(C)O[C@H]1[C@H]1COC(C)(C)O1` (stereo not given in full), the TGI in [1] was greater than 50 µM; in [2], 10.8 µM; in [3], greater than 50 µM; in [4] it was 28.5 µM; in [5] it was 16.9 µM; in experiment [6] it was 14.5 µM. Besides, the TGI in experiment [7] was 9.55 µM; in experiment [8], 6.39 µM; in [9], 14.2 µM; in [10] it was 22.9 µM.

For the molecule `O=c1oc(-c2ccc(O)cc2)cc2cc(O)ccc12`, the TGI in experiment [1] is 64 µM; in experiment [2] it was 87.8 µM; in experiment [3], greater than 100 µM; in experiment [4] it was 97.6 µM; in [5], greater than 100 µM; in experiment [6] it was greater than 100 µM. The TGI in [7] is 78.9 µM; in experiment [8] it was 65.1 µM; in experiment [9], 65.9 µM; in [10] it was greater than 100 µM.

With `N=c1oc2ccccc2cc1-c1nc2ccccc2[nH]1`, the TGI in experiment [1] was greater than 100 µM; in [2], greater than 100 µM; in experiment [3], greater than 100 µM; in experiment [4], greater than 100 µM; in experiment [5], greater than 100 µM; in [6], 38.4 µM. Also, the TGI is 48.2 µM in [7], greater than 100 µM in experiment [8], greater than 100 µM in [9] and greater than 100 µM in [10].

For the molecule `O=[N+]([O-])C(/C(Cl)=C(\Cl)Br)=C(/Cl)SCc1ccccc1`, the TGI is 50.7 µM in experiment [1]; 4.61 µM in experiment [2]; 5.42 µM in experiment [3]; 9.76 µM in experiment [4]; 35.9 µM in [5]; 10.8 µM in experiment [6]. The TGI in experiment [7] stood at 3.79 µM; in experiment [8] it was 11.3 µM; in [9], 25.1 µM; in experiment [10], 33.5 µM.

As to `CC(C)=NOC(=O)CNC(=O)C(Cc1ccccc1)NC(=O)C(C)NC(=O)OC(C)(C)C` (stereo not given), the TGI in experiment [1], in experiment [2], in [3], in experiment [4], in experiment [5] and in experiment [6] was greater than 100 µM in each case. For the same molecule, the TGI in experiment [7], in experiment [8], in experiment [9] and in experiment [10] was greater than 100 µM throughout.
